Reference: PubChem BioAssay (NCI)
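Dose response: 5 concentrations. Exposure: 48 h. Format: 96-well plates. Endpoint: linear interpolation; highest concentration if not reached. The concentration for full growth arrest is given as TGI.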

Legend:
Assay in all cases: inhibition of tumour cell growth, NCI panel, 48 h
[1] = system: HCT-15 colon
[2] = system: SF-268 CNS
[3] = system: XF 498 CNS
[4] = system: U251 CNS
[5] = system: HL-60(TB) leukemia
[6] = system: LXFL 529 NSCLC
[7] = system: MOLT-4 leukemia
[8] = system: UO-31 renal
[9] = system: CAKI-1 renal
[10] = system: RXF 393 renal
[11] = system: LOX IMVI melanoma
[12] = system: CCRF-CEM leukemia
[13] = system: TK-10 renal
[14] = system: NCI-H23 lung
[15] = system: HOP-92 NSCLC
[16] = system: SR leukemia
[17] = system: SF-295 CNS
[18] = system: 786-0 renal
[19] = system: EKVX NSCLC
[20] = system: RXF-631 renal
[21] = system: SK-OV-3 ovarian
[22] = system: IGROV1 ovarian
[23] = system: SW-620 colon
[24] = system: M14 melanoma
[25] = system: HCC-2998 colon
[26] = system: SK-MEL-2 melanoma
[27] = system: A549 NSCLC
[28] = system: SNB-19 CNS
[29] = system: SNB-75 CNS
[30] = system: UACC-62 melanoma
[31] = system: KM12 colon
[32] = system: A498 renal
[33] = system: OVCAR-5 ovarian
[34] = system: UACC-257 melanoma
[35] = system: K-562 leukemia
[36] = system: HCT-116 colon
[37] = system: SN12C renal
[38] = system: OVCAR-8 ovarian
[39] = system: HOP-62 NSCLC
[40] = system: ACHN renal
[41] = system: DMS 273 small cell lung
[42] = system: NCI-H226 lung
[43] = system: SK-MEL-28 melanoma
[44] = system: SK-MEL-5 melanoma
[45] = system: NCI-H522 lung
[46] = system: HT29 colon
[47] = system: SNB-78 CNS
[48] = system: DLD-1 colon
[49] = system: SF-539 CNS
[50] = system: RPMI-8226 leukemia
[51] = system: MALME-3M melanoma
[52] = system: DMS 114 small cell lung
[53] = system: KM20L2 colon
[54] = system: OVCAR-4 ovarian
[55] = system: M19-MEL melanoma
[56] = system: COLO 205 colon
[57] = system: OVCAR-3 ovarian
[58] = system: NCI-H460 lung

**Q.** How did the TGI [1] turn out when `CN=C(SC)N(C)c1nc(=[N+](C)C)ss1` was run?
**A.** The TGI was over 100000 nM.

**Q.** What about the TGI [2] of the same compound?
**A.** The TGI was over 100000 nM.

**Q.** What about the TGI [3] of the same compound?
**A.** The TGI was over 100000 nM.

**Q.** And the TGI [4]?
**A.** Its TGI is over 100000 nM.

**Q.** And the TGI [5]?
**A.** The TGI was over 100000 nM.

**Q.** What about the TGI [6] of the same compound?
**A.** Its TGI is over 100000 nM.

**Q.** What about the TGI [7] of the same compound?
**A.** The TGI was over 100000 nM.

**Q.** And the TGI [8]?
**A.** The TGI was over 100000 nM.

**Q.** What about the TGI [9] of the same compound?
**A.** Its TGI is over 100000 nM.

**Q.** And the TGI [10]?
**A.** The TGI was over 100000 nM.

**Q.** And the TGI [11]?
**A.** The TGI was over 100000 nM.

**Q.** What about the TGI [12] of the same compound?
**A.** Its TGI is over 100000 nM.

**Q.** What about the TGI [13] of the same compound?
**A.** The TGI was over 100000 nM.

**Q.** And the TGI [14]?
**A.** Its TGI is over 100000 nM.

**Q.** What about the TGI [15] of the same compound?
**A.** Its TGI is over 100000 nM.

**Q.** What about the TGI [16] of the same compound?
**A.** The TGI was over 100000 nM.

**Q.** What about the TGI [17] of the same compound?
**A.** Its TGI is over 100000 nM.

**Q.** What about the TGI [18] of the same compound?
**A.** The TGI was over 100000 nM.

**Q.** What about the TGI [19] of the same compound?
**A.** Its TGI is over 100000 nM.

**Q.** What about the TGI [20] of the same compound?
**A.** Its TGI is 16400 nM.

**Q.** And the TGI [21]?
**A.** Its TGI is over 100000 nM.

**Q.** What about the TGI [22] of the same compound?
**A.** The TGI was over 100000 nM.

**Q.** What about the TGI [23] of the same compound?
**A.** The TGI was over 100000 nM.

**Q.** What about the TGI [24] of the same compound?
**A.** Its TGI is over 100000 nM.

**Q.** And the TGI [25]?
**A.** Its TGI is over 100000 nM.

**Q.** And the TGI [26]?
**A.** Its TGI is over 100000 nM.

**Q.** And the TGI [27]?
**A.** Its TGI is over 100000 nM.

**Q.** What about the TGI [28] of the same compound?
**A.** Its TGI is over 100000 nM.

**Q.** What about the TGI [29] of the same compound?
**A.** The TGI was over 100000 nM.

**Q.** And the TGI [30]?
**A.** Its TGI is over 100000 nM.

**Q.** What about the TGI [31] of the same compound?
**A.** Its TGI is over 100000 nM.

**Q.** What about the TGI [32] of the same compound?
**A.** Its TGI is over 100000 nM.

**Q.** And the TGI [33]?
**A.** The TGI was over 100000 nM.

**Q.** What about the TGI [34] of the same compound?
**A.** The TGI was over 100000 nM.

**Q.** And the TGI [35]?
**A.** The TGI was 69000 nM.

**Q.** And the TGI [36]?
**A.** Its TGI is over 100000 nM.

**Q.** And the TGI [37]?
**A.** The TGI was over 100000 nM.

**Q.** And the TGI [38]?
**A.** The TGI was over 100000 nM.

**Q.** What about the TGI [39] of the same compound?
**A.** Its TGI is over 100000 nM.

**Q.** And the TGI [40]?
**A.** Its TGI is over 100000 nM.

**Q.** What about the TGI [41] of the same compound?
**A.** Its TGI is over 100000 nM.

**Q.** And the TGI [42]?
**A.** Its TGI is over 100000 nM.

**Q.** What about the TGI [43] of the same compound?
**A.** The TGI was over 100000 nM.

**Q.** What about the TGI [44] of the same compound?
**A.** The TGI was over 100000 nM.

**Q.** And the TGI [45]?
**A.** Its TGI is over 100000 nM.

**Q.** And the TGI [46]?
**A.** The TGI was over 100000 nM.

**Q.** And the TGI [47]?
**A.** The TGI was over 100000 nM.

**Q.** Which results are given for `CCN(CC)C1CC(O[C@H]2C[C@](O)(C(=O)CO)Cc3c(O)c4c(c(O)c32)C(=O)c2c(OC)cccc2C4=O)OC(C)C1O` (stereo partly drawn)?
**A.** TGI [1]: 3540 nM; TGI [2]: 314 nM; TGI [3]: 223 nM; TGI [48]: 260 nM; TGI [4]: 1190 nM; TGI [5]: 533 nM; TGI [6]: 1100 nM; TGI [7]: 1170 nM; TGI [49]: 204 nM; TGI [8]: 264 nM; TGI [50]: 310 nM; TGI [10]: 123 nM; TGI [11]: 439 nM; TGI [12]: 1410 nM; TGI [13]: 2570 nM; TGI [14]: 154 nM; TGI [15]: 268 nM; TGI [51]: 166 nM; TGI [17]: 468 nM; TGI [18]: 541 nM; TGI [19]: 336 nM; TGI [20]: 11900 nM; TGI [21]: 9620 nM; TGI [22]: 4660 nM; TGI [23]: 328 nM; TGI [24]: 310 nM; TGI [52]: 274 nM; TGI [25]: 290 nM; TGI [26]: 193 nM; TGI [27]: 394 nM; TGI [28]: 754 nM; TGI [29]: 184 nM; TGI [30]: 96.8 nM; TGI [31]: 457 nM; TGI [32]: 79.8 nM; TGI [33]: 561 nM; TGI [34]: 305 nM; TGI [35]: 947 nM; TGI [53]: 416 nM; TGI [54]: 255 nM; TGI [55]: 167 nM; TGI [56]: 193 nM; TGI [36]: 1030 nM; TGI [37]: 1250 nM; TGI [38]: 565 nM; TGI [57]: 770 nM; TGI [58]: 146 nM; TGI [39]: 455 nM; TGI [40]: 208 nM; TGI [41]: 161 nM; TGI [42]: 44 nM; TGI [43]: 216 nM; TGI [44]: 124 nM; TGI [45]: 121 nM; TGI [46]: 1640 nM; TGI [47]: 785 nM
